The source of these data is patent publication US11497740B2, “Use of Jumonji C demethylase inhibitors for the treatment and prevention of chemotherapy resistance and radioresistance in cancer” (THE BOARD OF REGENTS OF THE UNIVERSITY OF TEXAS SYSTEM, priority 2016, dated 2022).

Assay [1] concerns H1355 T16. Briefly: MTS cell viability assay, H1355 T16 resistant variant vs H1355 Parental. The format is cell-based, human. As to conditions: H1355 T16 vs H1355 Parental. The procedure: NSCLC lines were treated with paclitaxel+carboplatin combination, given in a ˜2:3 wt/wt ratio, to mirror the clinical dosage values of ˜225 mg/m2 and ˜330 mg/m2, paclitaxel and carboplatin respectively. Note that considering the molecular weights of the two drugs, this translates to approximately a 1 to 3.4 molar ratio. Drugs were given in cycles, following a drug on/drug off treatment scheme. Each cycle consisted of 4-5 days of drug treatment and drug-free culturing for about 1-2 weeks or more to allow the surviving cells to repopulate the plate. […] Untreated parental cells were simultaneously maintained at all times for comparison. Cell viability was assessed in 96-well plates using standard MTS assays (Promega). Treatment duration in MTS assays was 4 days. Drugs were tested in two- or four-fold serial dilutions, totaling 8 different drug concentrations, with 8 replicates per concentration. Response was validated in multiple replicate plates (n≥3).
Cell viability was assessed by standard MTS assays using Promega's CellTiter reagents. Eight drug concentrations given as two- or four-fold dilutions were tested for each chemotherapeutic agent. In addition, each experiment contained eight replicates per concentration and the entire assay was performed in multiple replicates (n≥3).
Background: Tetrazolium dyes change colour on reduction, which living cells bring about.

For assay [2], the system named is H3K27me3 demethylase activity. Briefly: Histone demethylase activity in tumor lysates by ELISA (H3K27me3). The class given is in vivo. As to conditions: H1299 T18 xenografts, drug-treated vs vehicle. The source says: To evaluate whether the targeted KDM enzymatic activity was reduced in the JmjC inhibitor-treated tumors in vivo, the inventors measured histone demethylase activity in drug-treated and vehicle-control tumor lysates by ELISA. […] Altogether, the results confirmed reduction of the targeted KDM enzymatic activity with cytostatic/cytotoxic effects in JmjC inhibitor-treated chemoresistant xenografts.
Background: ELISA stands for enzyme-linked immunosorbent assay.

Assay [3] has as its system H1299 T18 chemo-resistant cells. Briefly: Colony formation, combination with paclitaxel+carboplatin. The class given is cell-based, human. As to conditions: positive ΔBliss. How it is done: All statistical tests including two-way ANOVA with Sidak's multiple comparisons test, one-way ANOVA with Dunnett's multiple comparisontest, post-test for linear trend and unpaired t-tests were performed using GraphPad Prism 6.00. P values are represented as *P<0.05, **P<0.01, ***P<0.001 and ****P<0.0001. For drug treatments, dose response curves and IC50 values were calculated using GraphPad Prism or in-house DIVISA (Database of InVItro Sensitivity Assays; L. Girard). For drug combination in colony formation, delta Bliss excess was calculated as shown previously (Wilson et al., 2014). Bliss expectation was calculated as A+B−(A×B), where A and B denote the fractional responses from drugs A and B given individually. The difference between Bliss expectation and observed response from combination of drugs A and B at the same doses is the delta Bliss excess.
400 cells were seeded per well in six well plates and treated with various drug concentrations the next day. After 2-3 weeks, colonies were stained with 0.5% crystal violet, 3% formaldehyde solution and counted both manually and automatically using Quantity One image analysis software (Bio-Rad).

Assay [4] has as its system immortalized normal human bronchial epithelial cells HBEC3KT and HBEC30KT. Briefly: Clonogenic survival with IR, normal bronchial epithelial cells. As to conditions: IC50 doses of JIB-04, 4 h prior to radiation. The class given is cell-based. The procedure:
Cells were serially diluted to appropriate concentrations and plated into 60-mm dish in triplicate for 4 h. Then cells were treated with the indicated drugs, and irradiated 4 hours later with graded doses of radiation for concurrent treatment or irradiated and 4 hours later the drugs added for post-treatment. All cells were irradiated at room temperature in ambient air using a 137Cs source (Mark 1-68 irradiator, JL Shepherd & Associated). Surviving colonies were stained with crystal violet approximately 10 to 14 days later and colonies formed with more than 50 cells were counted. Clonogenic fraction of irradiated cells was normalized to the plating efficiency of unirradiated controls. The data are presented as the mean±SD. The curve S=e^−(αD+βD2) was fitted to the experimental data using a least square fit algorithm using the program Sigma Plot 11.0 (Systat Software, Inc.).
To evaluate whether the effect of JIB-04 on DNA repair dynamics described above was cancer-selective, IC50 doses of JIB-04 in colony formation assays of immortalized normal human bronchial epithelial cells HBEC3KT and HBEC30KT were calculated (FIG. 27A). Then these doses of JIB-04 were used to pretreat cells 4 h prior to radiation and survival was measured. […]

Assay [5] has as its system RAD51. Briefly: RAD-51 foci kinetics after IR. The format is cell-based, Human. The conditions noted are these: JIB-04 25 nM 4 h, 10 Gy. How it is done:
NSCLCs were seeded onto Lab-Tek II Chamber Slides (Thermo Fisher) and 24 hours later pretreated with JIB-04 or DMSO for 4 h. Then cells were exposed to a total dose of 2 Gy (γH2AX and 53BP1) or 10 Gy (RAD-51 and DNAPKcs p-T2609) radiation. For knockdown and overexpression experiments H1299 cells were transfected using the Amaxa Nucleofector; program X-005. Specifically, 3×10^6 were transfected with siRNA duplexes targeting JMJD2A, JMJD2B, Jarid1A, Jarid1b, scrambled siRNA (250 nM final concentration) or expression vectors pCMVHA-JMJD2A, pCMVHA-JMJD2B, pCMVHA-Jarid1A, pCMVHA-Jarid1B, PC-2 for 72 hours, followed by quantification of expression or irradiation. Then, cells were fixed in 4% formaldehyde/PBS for 15 min, permeabilized with 0.5% Triton X-100 for 15 min on ice, and blocked with 5% bovine serum albumin in PBS for 1 h. The slides were incubated with an antibody against phospho-Histone γH2AX (1:1000, 3 h at room temperature), 53BP1 (1:500, 3 h at room temperature), Rad-51 (1:500, 48 hs 4° C.) or DNAPKcs p-T2609 (1:500, 48 hs 4° C.). Alexa Fluor 488-conjugated goat anti-Rabbit, […] goat anti-mouse or rhodamine red-conjugated goat anti-mouse secondaries antibodies were used (1:1000, 1 h at room temperature). […] Cells were analyzed on a Zeiss upright fluorescent microscope.

Regarding `CCOC(=O)CCNc1cc(N2CCc3ccccc3CC2)nc(-c2ccccn2)n1` [GSK-J4], the “sensitivity of resistant variant compared to parental cells” value in assay [1] was “higher sensitivity”. Further, the “H3K27me3 demethylase activity in tumor lysates” value in assay [2] is “significantly inhibited H3K27me3 demethylase activity”. Besides, in assay [3], the “colony formation in combination with paclitaxel+carboplatin” value was “synergistic inhibition of colony formation”.
Take `Clc1ccc(N/N=C(\c2ccccc2)c2ccccn2)nc1` [JIB-04]: the “sensitivity of resistant variant compared to parental cells” value in assay [1] is on record as “higher sensitivity”. Further, in assay [1] (SR = [IC50 of Parental]/[IC50 of Resistant]), the “H1355 T16 SR (Selectivity Ratio)” value was found to be 2.8. The “H3K27me3 demethylase activity in tumor lysates” value in assay [2] is recorded as “significantly inhibited”. Also, the “colony formation in combination with paclitaxel+carboplatin” value in assay [3] is recorded as “synergistic inhibition of colony formation”. Moreover, the “radiosensitization (clonogenic survival)” value in assay [4] was “did not radiosensitize”. Moreover, in assay [5], the RAD51 foci resolution entry is “impaired foci resolution” and the “RAD51 recruitment (foci formation)” value is reported as “significantly diminished RAD51 recruitment”.
